# In patent publication US8436178B2, “Imidazoquinolines with immuno-modulating properties” (AstraZeneca AB, priority 2007, dated 2013):
# Counter-ions that a name gives are not always drawn.
# Biological target: T1, human TLR7 (Homo sapiens, UniProt Q9NYK1)
# T1 construct: expressed in transfected cells; host or cells: HEK293 cell line stably expressing the pNiFty2-SEAP reporter plasmid; TLR7 in pUNO vector, blasticidin selection
# T1 sequence (Q9NYK1 27-1049): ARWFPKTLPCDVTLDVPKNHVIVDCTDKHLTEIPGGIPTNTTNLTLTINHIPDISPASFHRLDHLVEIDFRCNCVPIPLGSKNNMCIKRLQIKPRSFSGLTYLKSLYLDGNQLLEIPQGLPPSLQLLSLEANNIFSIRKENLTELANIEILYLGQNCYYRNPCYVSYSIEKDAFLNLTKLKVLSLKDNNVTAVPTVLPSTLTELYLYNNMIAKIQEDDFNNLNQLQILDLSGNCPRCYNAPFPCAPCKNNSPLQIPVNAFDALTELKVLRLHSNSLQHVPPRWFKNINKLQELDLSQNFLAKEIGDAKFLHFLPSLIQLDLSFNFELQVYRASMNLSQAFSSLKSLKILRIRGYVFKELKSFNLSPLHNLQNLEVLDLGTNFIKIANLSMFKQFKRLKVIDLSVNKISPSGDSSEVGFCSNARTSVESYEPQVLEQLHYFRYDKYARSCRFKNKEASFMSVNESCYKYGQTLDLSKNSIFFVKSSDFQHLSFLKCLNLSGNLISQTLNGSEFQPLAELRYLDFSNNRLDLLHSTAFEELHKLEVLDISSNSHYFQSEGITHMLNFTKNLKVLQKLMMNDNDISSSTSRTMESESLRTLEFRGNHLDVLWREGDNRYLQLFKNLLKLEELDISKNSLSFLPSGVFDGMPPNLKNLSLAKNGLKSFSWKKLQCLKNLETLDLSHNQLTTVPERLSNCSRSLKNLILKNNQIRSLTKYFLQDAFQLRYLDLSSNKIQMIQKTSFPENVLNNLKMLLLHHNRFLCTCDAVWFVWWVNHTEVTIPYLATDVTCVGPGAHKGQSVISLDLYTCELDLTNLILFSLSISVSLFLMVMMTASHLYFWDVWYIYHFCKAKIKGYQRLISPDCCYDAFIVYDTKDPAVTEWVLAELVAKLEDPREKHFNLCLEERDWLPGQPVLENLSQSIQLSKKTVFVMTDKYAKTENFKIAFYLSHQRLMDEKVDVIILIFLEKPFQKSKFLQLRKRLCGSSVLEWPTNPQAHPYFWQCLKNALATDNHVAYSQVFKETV
# Assay: Human TLR7 assay (SEAP reporter in HEK293 cells)
# Format: cell-based
# Details: SEAP induction in HEK293 cells expressing human TLR7, overnight incubation at 37° C., 0.1% DMSO
# From the text: The most common variant sequence of human TLR7 (represented by the EMBL sequence AF240467) was cloned into the mammalian cell expression vector pUNO and transfected into a HEK293 cell line already stably expressing the pNiFty2-SEAP reporter plasmid; integration of the reporter gene was maintained by selection with the antibiotic zeocin. Transfectants with stable TLR7 expression were selected using the antibiotic blasticidin. In this reporter cell-line, expression of secreted alkaline phosphatase (SEAP) is controlled by an NFkB/ELAM-1 composite promoter comprising five NFkB sites combined with the proximal ELAM-1 promoter. TLR signaling leads to the translocation of NFkB and activation of the promoter results in expression of the SEAP gene. TLR7-specific activation was assessed by determining the level of SEAP produced following overnight incubation of the cells at 37° C. with the standard compound in the presence of 0.1% (v/v) dimethylsulfoxide (DMSO). Concentration dependent induction of SEAP production by compounds was expressed as the concentration of compound which produced half of the maximal level of SEAP induction for that compound (pEC50).
row,Compound,EC50
1,"COCCc1nc2c(N)nc3ccccc3c2n1CCCN(Cc1cccc(CC(=O)OC)c1)C(=O)CN1CCCCC1 [Example 31, Methyl 2-(3-((N-(3-(4-amino-2-(2-methoxyethyl)-1H-imidazo[4,5-c]quinolin-1-yl)propyl)-2-(piperidin-1-yl)acetamido)methyl)phenyl)acetate saccharin salt]",158 nM
2,"CCCCc1nc2c(N)nc3ccccc3c2n1CCCNCc1cccc(CC(=O)OC)c1 [Example 2, Methyl 2-(3-((3-(4-amino-2-butyl-1H-imidazo[4,5-c]quinolin-1-yl)propylamino)methyl)phenyl)acetate]",398 nM
3,"CCOCc1nc2c(N)nc3ccccc3c2n1CC1CCN(Cc2cccc(CC(=O)OC)c2)CC1 [Example 5, di-trifluoroacetate salt]",316 nM
4,"CCCCc1nc2c(N)nc3ccccc3c2n1CCCN(Cc1cccc(CC(=O)OC)c1)C(=O)CN1CCCN(C(=O)NCC)CC1 [Example 64, Methyl 2-(3-((N-(3-(4-amino-2-butyl-1H-imidazo[4,5-c]quinolin-1-yl)propyl)-2-(4-(ethylcarbamoyl)-1,4-diazepan-1-yl)acetamido)methyl)phenyl)acetate]",1260 nM
5,"CCCCc1nc2c(N)nc3ccccc3c2n1CCCN(Cc1cccc(CC(=O)OC)c1)C(=O)CN1CCN(CCO)CC1 [Example 56, Methyl 2-(3-((N-(3-(4-amino-2-butyl-1H-imidazo[4,5-c]quinolin-1-yl)propyl)-2-(4-(2-hydroxyethyl)piperazin-1-yl)acetamido)methyl)phenyl)acetate]",501 nM
6,"CCCCc1nc2c(N)nc3ccccc3c2n1CCCNCc1ccc(CC(=O)OC)cc1 [Example 1, Methyl 2-(4-((3-(4-amino-2-butyl-1H-imidazo[4,5-c]quinolin-1-yl)propylamino)methyl)phenyl)acetate]",316 nM
7,CCCCc1nc2c(N)nc3ccccc3c2n1CCCN(Cc1cccc(CC(=O)OC)c1)C(=O)CN(CCC)CCC [Example 41],79.4 nM
8,"CCCCc1nc2c(N)nc3ccccc3c2n1CCCN(CCCN(C)CC)Cc1cccc(CC(=O)OC)c1 [Example 13, Methyl 2-(3-(((3-(4-amino-2-butyl-1H-imidazo[4,5-c]quinolin-1-yl)propyl)(3-(ethyl(methyl)amino)propyl)amino)methyl)phenyl)acetate]",158 nM
9,"CCCCc1nc2c(N)nc3ccccc3c2n1CCCN(Cc1cccc(CC(=O)OC)c1)C(=O)CN1CC(O)C1 [Example 45, Methyl 2-(3-((N-(3-(4-amino-2-butyl-1H-imidazo[4,5-c]quinolin-1-yl)propyl)-2-(3-hydroxyazetidin-1-yl)acetamido)methyl)phenyl)acetate]",1580 nM
10,"COCCc1nc2c(N)nc3ccccc3c2n1CCCN(Cc1ccc(CC(=O)OC)cc1)C(=O)CCN1CCCCC1 [Example 33, Methyl 2-(4-((N-(3-(4-amino-2-(2-methoxyethyl)-1H-imidazo[4,5-c]quinolin-1-yl)propyl)-3-(piperidin-1-yl)propanamido)methyl)phenyl)acetate]",158 nM
11,"CCCCc1nc2c(N)nc3ccccc3c2n1CCCN(Cc1cccc(CC(=O)OC)c1)C(=O)CN(CCO)CCO [Example 42, Methyl 2-(3-((N-(3-(4-amino-2-butyl-1H-imidazo[4,5-c]quinolin-1-yl)propyl)-2-(bis(2-hydroxyethyl)amino)acetamido)methyl)phenyl)acetate]",1580 nM

# Results, then the compound that gave them:
row,EC50,Compound
1,100 nM,"COCCc1nc2c(N)nc3ccccc3c2n1CCCN(Cc1ccc(CC(=O)OC)cc1)C(=O)CN1CCCCC1 [Example 29, Methyl 2-(4-((N-(3-(4-amino-2-(2-methoxyethyl)-1H-imidazo[4,5-c]quinolin-1-yl)propyl)-2-(piperidin-1-yl)acetamido)methyl)phenyl)acetate]"
2,501 nM,"CCCCc1nc2c(N)nc3ccccc3c2n1CCCN(Cc1cccc(CC(=O)OC)c1)C(=O)CN1CCC(O)CC1 [Example 50, Methyl 2-(3-((N-(3-(4-amino-2-butyl-1H-imidazo[4,5-c]quinolin-1-yl)propyl)-2-(4-hydroxypiperidin-1-yl)acetamido)methyl)phenyl)acetate]"
3,251 nM,"CCCCc1nc2c(N)nc3ccccc3c2n1CCCN(Cc1ccc(CC(=O)OC)cc1)C(=O)CN1CCN(S(=O)(=O)CC)CC1 [Example 23, Methyl 2-(4-((N-(3-(4-amino-2-butyl-1H-imidazo[4,5-c]quinolin-1-yl)propyl)-2-(4-(ethylsulfonyl)piperazin-1-yl)acetamido)methyl)phenyl)acetate]"
4,501 nM,"CCCCc1nc2c(N)nc3ccccc3c2n1CCCN(Cc1ccc(CC(=O)OC)cc1)C(=O)CN1CCCN(C(C)=O)CC1 [Example 67, Methyl 2-(4-((2-(4-acetyl-1,4-diazepan-1-yl)-N-(3-(4-amino-2-butyl-1H-imidazo[4,5-c]quinolin-1-yl)propyl)acetamido)methyl)phenyl)acetate]"
5,794 nM,"CCCCc1nc2c(N)nc3ccccc3c2n1CCCN(Cc1cccc(CC(=O)OC)c1)C(=O)CN1CCOCC1 [Example 53, Methyl 2-(3-((N-(3-(4-amino-2-butyl-1H-imidazo[4,5-c]quinolin-1-yl)propyl)-2-morpholinoacetamido)methyl)phenyl)acetate]"
6,631 nM,"CCCCc1nc2c(N)nc3ccccc3c2n1CCCN(Cc1ccc(CC(=O)OC)cc1)C1CCN(C)CC1 [Example 9, Methyl 2-(4-(((3-(4-amino-2-butyl-1H-imidazo[4,5-c]quinolin-1-yl)propyl)(1-methylpiperidin-4-yl)amino)methyl)phenyl)acetate]"
7,398 nM,"COCCc1nc2c(N)nc3ccccc3c2n1CCCN(Cc1ccc(CC(=O)OC)cc1)C(=O)CN1CCCC1 [Example 37, Methyl 2-(4-((N-(3-(4-amino-2-(2-methoxyethyl)-1H-imidazo[4,5-c]quinolin-1-yl)propyl)-2-(pyrrolidin-1-yl)acetamido)methyl)phenyl)acetate disaccharin salt]"
8,39.8 nM,"CCCCc1nc2c(N)nc3ccccc3c2n1CCCN(Cc1ccc(CC(=O)OC)cc1)C(=O)CN1CCC(CC(=O)OCC)CC1 [Example 27, Ethyl 2-(1-(2-((3-(4-amino-2-butyl-1H-imidazo[4,5-c]quinolin-1-yl)propyl)(4-(2-methoxy-2-oxoethyl)benzyl)amino)-2-oxoethyl)piperidin-4-yl)acetate]"
9,398 nM,"CCCCc1nc2c(N)nc3ccccc3c2n1CCCN(Cc1cccc(CC(=O)OC)c1)C(=O)CN1CC[C@@H](O)C1 [Example 48, (R)-Methyl 2-(3-((N-(3-(4-amino-2-butyl-1H-imidazo[4,5-c]quinolin-1-yl)propyl)-2-(3-hydroxypyrrolidin-1-yl)acetamido)methyl)phenyl)acetate]"
10,251 nM,"CCCCc1nc2c(N)nc3ccccc3c2n1CCCN(Cc1ccc(CC(=O)OC)cc1)C(=O)CN1CC[C@@H](O)C1 [Example 20, (R)-Methyl 2-(4-((N-(3-(4-amino-2-butyl-1H-imidazo[4,5-c]quinolin-1-yl)propyl)-2-(3-hydroxypyrrolidin-1-yl)acetamido)methyl)phenyl)acetate]"
11,158 nM,"CCCCc1nc2c(N)nc3ccccc3c2n1CCCN(Cc1ccc(CC(=O)OC)cc1)C(=O)CN1CCN(CCOC)CC1 [Example 66, Methyl 2-(4-((N-(3-(4-amino-2-butyl-1H-imidazo[4,5-c]quinolin-1-yl)propyl)-2-(4-(2-methoxyethyl)piperazin-1-yl)acetamido)methyl)phenyl)acetate]"
12,1260 nM,"CCCCc1nc2c(N)nc3ccccc3c2n1CCCN(Cc1cccc(CC(=O)OC)c1)C(=O)CN1CCN(C(C)=O)CC1 [Example 58, Methyl 2-(3-((2-(4-acetylpiperazin-1-yl)-N-(3-(4-amino-2-butyl-1H-imidazo[4,5-c]quinolin-1-yl)propyl)acetamido)methyl)phenyl)acetate]"
13,200 nM,"COCCc1nc2c(N)nc3ccccc3c2n1CCCN(Cc1ccc(CC(=O)OC)cc1)C(=O)CN1CCN(CCOC)CC1 [Example 71, Methyl 2-(4-((N-(3-(4-amino-2-(2-methoxyethyl)-1H-imidazo[4,5-c]quinolin-1-yl)propyl)-2-(4-(2-methoxyethyl)piperazin-1-yl)acetamido)methyl)phenyl)acetate]"
14,126 nM,"CCCCc1nc2c(N)nc3ccccc3c2n1CCCN(Cc1ccc(CC(=O)OC)cc1)C(C)=O [Example 16, Methyl 2-(4-((N-(3-(4-amino-2-butyl-1H-imidazo[4,5-c]quinolin-1-yl)propyl)acetamido)methyl)phenyl)acetate]"
